Reference: ChEMBL document CHEMBL5465560, “Selectivity Literature for EUbOPEN Chemogenomic Library” (2024)
Values belong to the compound of their own block, whether it stands above or below them.

What was measured:
[1] = target: Glycogen synthase kinase-3 beta (Homo sapiens, UniProt P49841); assay: Selectivity interaction (ActivX KiNativ screen (kinase selectivity in THP-1 cell lysates)) EUB0000639a GSK3B; assay type: subcellular; conditions: lysate
[2] = target: Serine/threonine-protein kinase N1 (Homo sapiens, UniProt Q16512); assay: Selectivity interaction (ActivX KiNativ screen (kinase selectivity in THP-1 cell lysates)) EUB0000639a PKN1; assay type: subcellular; conditions: lysate, at 0.01 µM
[3] = tested on: Leucine-rich repeat serine/threonine-protein kinase 2 (Homo sapiens), Q5S007 [G2019S]; assay: Selectivity interaction (Adapta Assay) EUB0001632a LRRK2; conditions: at 10 µM
[4] = target: Ribosomal protein S6 kinase alpha-4 (Homo sapiens) (UniProt O75676); assay: Selectivity interaction (KinomeScan (DiscoverX)) EUB0000595a RPS6KA4; conditions: at 10 µM
[5] = target: Ephrin type-A receptor 2 (Homo sapiens) (UniProt P29317); assay: Selectivity interaction (KinomeScan (DiscoverX)) EUB0000045b EPHA2
[6] = target: T1, Serine/threonine-protein kinase PLK4 (Homo sapiens) (UniProt O00444); assay: Selectivity interaction (KinomeScan (DiscoverX)) EUB0001619a PLK4; conditions: at 1 µM
T1 sequence (whole entry): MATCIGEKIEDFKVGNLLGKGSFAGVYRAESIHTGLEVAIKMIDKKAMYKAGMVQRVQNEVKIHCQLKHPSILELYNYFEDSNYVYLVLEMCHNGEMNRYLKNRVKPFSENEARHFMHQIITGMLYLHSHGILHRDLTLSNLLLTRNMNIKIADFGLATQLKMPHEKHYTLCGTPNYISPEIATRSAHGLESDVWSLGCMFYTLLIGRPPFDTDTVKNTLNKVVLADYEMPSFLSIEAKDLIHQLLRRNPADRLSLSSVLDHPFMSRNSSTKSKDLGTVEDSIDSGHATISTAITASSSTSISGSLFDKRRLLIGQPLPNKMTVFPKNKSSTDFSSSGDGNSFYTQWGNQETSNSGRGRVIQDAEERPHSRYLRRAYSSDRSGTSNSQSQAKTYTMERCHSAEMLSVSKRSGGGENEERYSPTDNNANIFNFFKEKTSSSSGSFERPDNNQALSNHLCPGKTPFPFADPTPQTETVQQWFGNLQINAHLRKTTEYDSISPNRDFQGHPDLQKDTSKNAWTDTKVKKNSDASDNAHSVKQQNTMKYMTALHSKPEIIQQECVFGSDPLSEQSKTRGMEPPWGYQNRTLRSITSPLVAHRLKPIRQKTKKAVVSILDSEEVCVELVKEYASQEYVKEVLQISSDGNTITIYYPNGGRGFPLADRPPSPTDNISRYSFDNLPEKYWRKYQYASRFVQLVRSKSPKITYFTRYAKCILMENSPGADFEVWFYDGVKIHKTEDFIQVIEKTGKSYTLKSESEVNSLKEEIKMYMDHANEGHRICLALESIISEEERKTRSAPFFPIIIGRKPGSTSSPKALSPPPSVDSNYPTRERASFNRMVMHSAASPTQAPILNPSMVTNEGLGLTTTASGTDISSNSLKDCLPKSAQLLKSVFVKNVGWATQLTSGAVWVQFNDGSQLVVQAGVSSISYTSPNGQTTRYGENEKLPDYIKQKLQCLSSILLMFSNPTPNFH

[7] = target: T2, Serine/threonine-protein kinase Nek1 (Homo sapiens) (UniProt Q96PY6); assay: Selectivity interaction (SelectScreen profiling (Invitrogen)) EUB0000607a NEK1; conditions: at 2 µM
T2 sequence (whole entry): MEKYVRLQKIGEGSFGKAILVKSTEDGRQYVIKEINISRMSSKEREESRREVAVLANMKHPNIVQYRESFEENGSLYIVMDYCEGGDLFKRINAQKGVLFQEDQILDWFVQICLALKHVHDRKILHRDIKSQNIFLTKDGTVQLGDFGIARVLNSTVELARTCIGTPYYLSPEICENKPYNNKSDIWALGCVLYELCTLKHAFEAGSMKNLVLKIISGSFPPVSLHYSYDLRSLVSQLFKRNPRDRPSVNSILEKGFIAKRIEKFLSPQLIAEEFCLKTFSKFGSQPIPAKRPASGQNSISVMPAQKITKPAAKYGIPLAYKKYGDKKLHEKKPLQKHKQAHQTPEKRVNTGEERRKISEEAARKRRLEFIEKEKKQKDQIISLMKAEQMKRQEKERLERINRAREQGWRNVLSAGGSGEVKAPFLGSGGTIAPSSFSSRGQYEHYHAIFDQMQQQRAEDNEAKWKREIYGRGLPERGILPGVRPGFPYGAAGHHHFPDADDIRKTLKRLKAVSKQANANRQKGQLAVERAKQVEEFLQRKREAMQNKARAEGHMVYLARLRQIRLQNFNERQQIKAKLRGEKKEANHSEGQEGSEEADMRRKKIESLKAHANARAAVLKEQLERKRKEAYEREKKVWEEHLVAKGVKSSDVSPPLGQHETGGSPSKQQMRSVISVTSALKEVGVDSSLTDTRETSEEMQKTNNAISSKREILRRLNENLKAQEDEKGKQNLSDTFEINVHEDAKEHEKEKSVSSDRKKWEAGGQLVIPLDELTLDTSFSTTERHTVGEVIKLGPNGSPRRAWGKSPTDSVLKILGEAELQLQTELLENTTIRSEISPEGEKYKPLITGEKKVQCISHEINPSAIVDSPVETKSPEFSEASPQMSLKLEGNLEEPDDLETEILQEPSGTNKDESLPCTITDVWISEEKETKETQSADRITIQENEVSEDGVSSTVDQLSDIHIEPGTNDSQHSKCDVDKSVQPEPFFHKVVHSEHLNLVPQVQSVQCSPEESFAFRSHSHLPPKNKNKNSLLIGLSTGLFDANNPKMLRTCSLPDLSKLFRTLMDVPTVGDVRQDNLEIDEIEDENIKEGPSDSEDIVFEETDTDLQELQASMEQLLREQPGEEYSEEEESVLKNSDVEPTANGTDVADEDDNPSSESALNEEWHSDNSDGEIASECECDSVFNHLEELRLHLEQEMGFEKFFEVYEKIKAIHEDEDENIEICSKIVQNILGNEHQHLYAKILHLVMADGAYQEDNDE

Glycogen synthase kinase-3 beta, sequence (P49841 whole entry, looked up): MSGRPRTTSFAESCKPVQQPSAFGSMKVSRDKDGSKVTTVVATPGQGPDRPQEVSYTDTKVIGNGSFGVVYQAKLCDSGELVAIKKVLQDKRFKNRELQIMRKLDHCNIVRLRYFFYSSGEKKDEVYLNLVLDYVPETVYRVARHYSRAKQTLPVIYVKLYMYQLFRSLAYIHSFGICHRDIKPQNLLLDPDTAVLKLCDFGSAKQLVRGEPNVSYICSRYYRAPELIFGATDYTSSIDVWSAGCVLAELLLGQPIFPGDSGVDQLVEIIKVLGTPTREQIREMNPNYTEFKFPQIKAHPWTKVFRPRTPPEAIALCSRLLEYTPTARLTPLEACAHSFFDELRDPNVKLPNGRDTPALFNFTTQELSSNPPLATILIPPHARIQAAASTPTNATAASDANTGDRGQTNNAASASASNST
Ephrin type-A receptor 2 (Homo sapiens), sequence (P29317 whole entry): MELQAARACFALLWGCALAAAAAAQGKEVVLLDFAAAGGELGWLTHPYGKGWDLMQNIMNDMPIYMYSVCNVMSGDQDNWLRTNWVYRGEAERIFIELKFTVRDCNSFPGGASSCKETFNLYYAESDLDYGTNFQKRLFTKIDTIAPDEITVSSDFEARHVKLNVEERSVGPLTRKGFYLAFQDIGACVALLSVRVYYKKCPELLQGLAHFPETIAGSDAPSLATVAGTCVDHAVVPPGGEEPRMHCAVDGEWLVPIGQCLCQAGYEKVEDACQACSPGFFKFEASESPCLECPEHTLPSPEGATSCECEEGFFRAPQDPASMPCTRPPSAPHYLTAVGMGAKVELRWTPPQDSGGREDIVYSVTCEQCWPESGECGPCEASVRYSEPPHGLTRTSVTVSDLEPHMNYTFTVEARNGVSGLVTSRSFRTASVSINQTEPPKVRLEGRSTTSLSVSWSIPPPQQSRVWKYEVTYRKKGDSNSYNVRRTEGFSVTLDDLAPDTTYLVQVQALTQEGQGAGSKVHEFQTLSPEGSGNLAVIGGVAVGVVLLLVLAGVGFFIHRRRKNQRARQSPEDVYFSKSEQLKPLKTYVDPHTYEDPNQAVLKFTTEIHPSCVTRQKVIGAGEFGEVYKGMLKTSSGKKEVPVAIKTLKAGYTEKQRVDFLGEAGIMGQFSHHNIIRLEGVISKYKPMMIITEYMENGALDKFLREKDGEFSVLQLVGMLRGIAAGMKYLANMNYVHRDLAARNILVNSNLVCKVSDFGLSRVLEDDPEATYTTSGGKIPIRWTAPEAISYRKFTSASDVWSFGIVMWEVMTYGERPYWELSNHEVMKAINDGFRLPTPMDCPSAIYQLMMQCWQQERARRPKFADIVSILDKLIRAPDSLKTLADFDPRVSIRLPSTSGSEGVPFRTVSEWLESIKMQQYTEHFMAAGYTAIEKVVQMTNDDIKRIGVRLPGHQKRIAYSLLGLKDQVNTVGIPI
Ribosomal protein S6 kinase alpha-4 (Homo sapiens), sequence (O75676 whole entry, looked up): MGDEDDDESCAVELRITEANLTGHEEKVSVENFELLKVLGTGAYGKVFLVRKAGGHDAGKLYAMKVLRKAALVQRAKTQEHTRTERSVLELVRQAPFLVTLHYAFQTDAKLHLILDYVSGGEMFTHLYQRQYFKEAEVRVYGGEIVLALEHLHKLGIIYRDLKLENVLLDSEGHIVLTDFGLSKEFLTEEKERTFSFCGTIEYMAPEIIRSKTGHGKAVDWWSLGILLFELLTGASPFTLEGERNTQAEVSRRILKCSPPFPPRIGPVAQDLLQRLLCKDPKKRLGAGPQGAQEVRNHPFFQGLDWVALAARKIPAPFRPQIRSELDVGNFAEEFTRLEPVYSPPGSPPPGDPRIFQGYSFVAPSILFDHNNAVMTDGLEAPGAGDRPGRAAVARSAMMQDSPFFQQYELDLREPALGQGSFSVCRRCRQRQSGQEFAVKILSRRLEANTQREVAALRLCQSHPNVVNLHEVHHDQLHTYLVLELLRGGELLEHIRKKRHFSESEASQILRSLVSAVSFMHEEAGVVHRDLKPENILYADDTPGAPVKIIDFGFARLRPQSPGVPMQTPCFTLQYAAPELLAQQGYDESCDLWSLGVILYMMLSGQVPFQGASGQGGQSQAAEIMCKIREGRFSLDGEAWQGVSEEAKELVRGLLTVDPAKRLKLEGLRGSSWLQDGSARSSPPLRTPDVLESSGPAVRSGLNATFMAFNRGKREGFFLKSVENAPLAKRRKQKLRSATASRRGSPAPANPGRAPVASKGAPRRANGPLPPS
Serine/threonine-protein kinase N1, sequence (Q16512 2-942 limits assumed): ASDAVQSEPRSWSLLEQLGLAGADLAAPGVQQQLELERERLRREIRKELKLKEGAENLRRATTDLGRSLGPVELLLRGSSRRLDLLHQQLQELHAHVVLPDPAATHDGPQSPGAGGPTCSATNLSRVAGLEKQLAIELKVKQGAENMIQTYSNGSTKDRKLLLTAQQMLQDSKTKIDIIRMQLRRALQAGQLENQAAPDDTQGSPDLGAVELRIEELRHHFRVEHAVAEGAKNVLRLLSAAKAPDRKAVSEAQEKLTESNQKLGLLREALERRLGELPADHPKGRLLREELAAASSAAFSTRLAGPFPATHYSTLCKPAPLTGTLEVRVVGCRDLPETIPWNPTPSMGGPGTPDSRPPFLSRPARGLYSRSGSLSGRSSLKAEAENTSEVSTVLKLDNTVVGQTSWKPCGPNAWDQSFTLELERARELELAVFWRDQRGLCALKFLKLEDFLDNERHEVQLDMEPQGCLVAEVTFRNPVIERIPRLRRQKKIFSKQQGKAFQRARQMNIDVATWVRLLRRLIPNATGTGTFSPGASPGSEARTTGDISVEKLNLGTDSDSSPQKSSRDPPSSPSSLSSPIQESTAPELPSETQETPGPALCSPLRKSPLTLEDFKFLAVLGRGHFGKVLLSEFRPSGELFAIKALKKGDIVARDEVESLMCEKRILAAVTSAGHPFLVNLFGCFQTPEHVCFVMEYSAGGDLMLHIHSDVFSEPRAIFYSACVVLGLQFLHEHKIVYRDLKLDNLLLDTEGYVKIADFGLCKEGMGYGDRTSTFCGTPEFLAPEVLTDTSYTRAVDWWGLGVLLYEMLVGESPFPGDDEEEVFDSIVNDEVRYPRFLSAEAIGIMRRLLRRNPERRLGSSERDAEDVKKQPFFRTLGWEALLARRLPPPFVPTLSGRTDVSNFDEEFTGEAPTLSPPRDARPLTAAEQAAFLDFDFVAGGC

% of inhibition ([1]; at 0.01 µM): -3.7%
% of inhibition ([1]; at 0.04 µM): 1.4%
% of inhibition ([1]; at 0.2 µM): 2.2%
% of inhibition ([1]; at 1 µM): 2%
% of inhibition ([1]; at 5 µM): -4.4%
% of inhibition [2]: -9.7%
Compound: CC[C@@H]1[C@H](F)C(=O)N[C@@H]1COc1nccc2cc(C(N)=O)c(OC)cc12 [ZIMLOVISERTIB]

% of inhibition [3]: 95%
Compound: Cn1cc(-n2cnc3c(NCc4nc5cc(Cl)c(Cl)cc5[nH]4)nc(N4CCOCC4)nc32)cn1

Compound: COCC(=O)NC/C=C/c1ccc2ncnc(Nc3ccc(Oc4ccc(C)nc4)c(C)c3)c2c1 [CP-724714]
% of control [4]: 97%

Compound: C=CC(=O)Nc1cc(-n2c(=O)ccc3cnc4ccc(-c5ccc(NS(C)(=O)=O)cc5)cc4c32)ccc1C
% of control ([5]; at 1 µM): 100%
% of control ([5]; at 10 µM): 100%

Compound: N#Cc1cccc(-c2c[nH]c3ncnc(N4CCOCC4)c23)c1
% of control [6]: 33%

Compound: CNC(=O)Nc1ccc(-c2nc(N3CC4CCC(C3)O4)c3cnn(C4CCC5(CC4)OCCO5)c3n2)cc1
% of inhibition [7]: 7%
